# Results from patent US12492200B2, “NLRP3 modulators” (INNATE TUMOR IMMUNITY, INC., priority 2020, dated 2025).
# pEC50: −log10 of the molar value.
# Target: T1, NLRP3 (Homo sapiens, UniProt Q96P20)
# T1 construct: host or cells: PMA-differentiated THP-1 cells
# Test: Measurement of IL-1β production (NLRP3 hIL1β EC50), PMA-differentiated THP-1 cells
# Format: cell-based
# Settings: human IL-1β production; assayed using one or more of the described procedures
# Experimental: THP-1 cells were purchased from the American Type Culture Collection and sub-cultured according to instructions from the supplier. Prior to experiments, cells were cultured in RPMI 1640 containing 10% heat inactivated FBS, penicillin (100 units/ml) and streptomycin (100 μg/ml), and maintained in log phase prior to experimental setup. Prior to the experiment THIP-1 were treated with PMA (Phorbol 12-myristate 13-acetate) (10 μg/ml) for 24 hours. The day of the experiment the media was removed and attaching cells were treated with trypsin for 2 minutes, cells were then collected, washed with PBS (phosphate buffer saline), spin down, resuspended in 2% heat inactivated FBS with RPMI at a concentration of 1×10^6 cells/ml, and 100 μl was plated in a 96 well plate. Compounds were dissolved in dimethyl sulfoxide (DMSO) and added to the culture medium to achieve desired concentration (e.g. 100, 30, 10, 3, 1, 0.3 or 0.1 μM). Cells were incubated with compounds for 4 hours. Cell free supernatant was collected and the production of IL-1β was evaluated by ELISA. A vehicle only control was run concurrently with each experiment. Final DMSO concentration was 1%.
# THP-1 cells were purchased from the American Type Culture Collection and sub-cultured according to instructions from the supplier. Prior to experiments, cells were cultured in RPMI 1640 containing 10% heat inactivated FBS, penicillin (100 units/ml), streptomycin (100 μg/ml), HEPES (10 mM) and sodium pyruvate (1 mM) and maintained in log phase prior to experimental setup. Prior to the experiment, THP-1 cells were treated with PMA (Phorbol 12-myristate 13-acetate) (20 μg/ml) overnight. The day of the experiment, the media was removed and attached cells were treated with trypsin for 2 minutes, cells were then collected, washed with PBS (phosphate buffer saline), pelleted by centrifugation and resuspended in 2% heat inactivated FBS with RPMI at a concentration of 50,000 cells/well in a 384 well plate. Cell free supernatant was collected and the production of IL-1β was evaluated by ELISA. Compounds were dissolved in dimethyl sulfoxide (DMSO) and added to the culture medium to achieve desired concentration (e.g. 100, 30, 10, 3, 1, 0.3 or 0.1 μM). Cells were incubated with compounds for 2 hours. A vehicle only control was run concurrently with each experiment. Final DMSO concentration was 1%.
# Serial dilutions of compounds in DMSO were added to low volume 384 well plates at 100 nl/well using an ECHO 550 acoustic dispenser (Labcyte) to achieve final starting concentration of 10 μM in assay.
# THP-1 cells in RPMI (Gibco, 11875) media with 10% FBS at a density of 1×10^6 cell/ml in a T175 flask were treated with a final concentration of phorbol 12-myristate 13-acetate (PMA) (Sigma,P1585) of 50 ng/ml overnight at 37° C. at 5% CO2 for differentiation. Cells were harvested the next day after rinsing well with dPBS using 0.5% trypsin. A cell solution was prepared of 1×10^6 cells/ml for 50,000 cells in 50 μl/well in RPMI media with 2% FBS. Cells were plated using a multichannel pipette onto the compound dilutions in Greiner, 384 well, black clear bottom tissue culture treated plates (781090). The plates were incubated in 37° C. incubator at 5% CO2 for 2 hours.
# After the 2 hour incubation, the cell plates were spun in the centrifuge for 5 minutes at 1200 rpm. Using the Felix (CyBio), 8 μl of the supernatant was transferred to 384 well, low volume, white proxy plates. (Perkin Elmer, 6008230). A human IL1beta hTRF kit was used to analyze the supernatant (CISBIO, 62HIL1BPEG). The kit instructions were followed for preparing the IL1Beta standard curve and then the antibodies from the kit were diluted 1:40 rather than 1:20 as kit instructed. Once combined, the antibodies were added across the plates, 5 μl/well. The plates were sealed and incubated at 4° C. overnight. The plates were then read on the Perkin Elmer EnVision at 665/615 nm using the hTRF laser.
# T1 sequence (Q96P20 whole entry): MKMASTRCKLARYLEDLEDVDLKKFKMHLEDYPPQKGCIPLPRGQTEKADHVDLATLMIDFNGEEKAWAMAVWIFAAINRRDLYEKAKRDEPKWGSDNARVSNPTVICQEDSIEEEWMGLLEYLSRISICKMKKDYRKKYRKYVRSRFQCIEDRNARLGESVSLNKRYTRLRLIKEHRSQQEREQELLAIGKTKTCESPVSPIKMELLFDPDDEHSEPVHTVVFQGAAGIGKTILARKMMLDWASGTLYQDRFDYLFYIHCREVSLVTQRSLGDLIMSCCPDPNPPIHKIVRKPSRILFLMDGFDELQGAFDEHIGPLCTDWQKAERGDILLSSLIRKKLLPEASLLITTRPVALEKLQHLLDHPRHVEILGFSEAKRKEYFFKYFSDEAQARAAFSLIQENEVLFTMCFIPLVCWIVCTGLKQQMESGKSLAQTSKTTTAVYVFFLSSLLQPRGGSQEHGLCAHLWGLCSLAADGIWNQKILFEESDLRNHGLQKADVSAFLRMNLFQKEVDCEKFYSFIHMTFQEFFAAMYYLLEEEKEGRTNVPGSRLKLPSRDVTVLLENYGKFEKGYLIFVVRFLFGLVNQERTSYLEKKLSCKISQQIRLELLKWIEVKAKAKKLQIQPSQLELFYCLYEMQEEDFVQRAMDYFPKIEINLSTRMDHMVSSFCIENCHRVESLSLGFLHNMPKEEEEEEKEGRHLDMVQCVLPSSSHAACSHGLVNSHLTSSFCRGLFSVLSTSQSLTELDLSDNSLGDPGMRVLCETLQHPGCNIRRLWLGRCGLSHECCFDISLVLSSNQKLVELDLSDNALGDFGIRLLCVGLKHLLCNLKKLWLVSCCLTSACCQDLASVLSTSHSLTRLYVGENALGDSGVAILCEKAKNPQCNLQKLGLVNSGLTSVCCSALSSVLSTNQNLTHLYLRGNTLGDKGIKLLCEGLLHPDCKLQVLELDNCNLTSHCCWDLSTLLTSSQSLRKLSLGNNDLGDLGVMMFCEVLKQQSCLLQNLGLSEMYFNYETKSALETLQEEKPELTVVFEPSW
row,pEC50,Molecule
1,6.48,CC(C)n1c([C@H]2CCCN(C(=O)C3CC(F)(F)C3)C2)nc2c(N)nc3cc(-c4cc[nH]n4)ccc3c21 [Example 58]
2,5.33,N#CC1(C(=O)N2CCC[C@H](c3nc4c(N)nc5cc(-c6cc[nH]n6)ccc5c4[nH]3)C2)CCC1 [Example 37]
3,6.96,CCn1c([C@H]2CCCN(C(=O)C3(C#N)CC3)C2)nc2c(N)nc3cc(-c4cc[nH]n4)ccc3c21 [Example 45]
4,4.96,Nc1nc2cc(-c3cc[nH]n3)ccc2c2[nH]c(C[C@@H]3CCCN3C(=O)c3ccccc3)nc12 [Example 96]
5,5.66,"tert-Butyl 3-((4-amino-7-(1H-pyrazol-1-yl)-1H-imidazo[4,5-c]quinolin-2-yl)methyl)pyrrolidine-1-carboxylate [Example 23]"
6,5.55,Nc1nc2cc(-c3cc[nH]n3)ccc2c2[nH]c([C@H]3CCCN(C(=O)C4(C(F)(F)F)CC4)C3)nc12 [Example 36]
7,5.70,N#CC1(C(=O)N2CCC[C@@H](c3nc4c(N)nc5cc(-c6cc[nH]n6)ccc5c4[nH]3)C2)CCC1 [Example 69]
8,6.19,CCn1c([C@H]2CCCN(C(=O)CCOC)C2)nc2c(N)nc3cc(-c4cc[nH]n4)ccc3c21 [Example 47]
9,5.23,Nc1nc2cc(-c3cc[nH]n3)ccc2c2[nH]c(C[C@H]3CCCN3C(=O)c3ccccn3)nc12 [Example 85]
10,6.48,"CCC(=O)N1CCC[C@H](c2nc3c(N)nc4cc(-c5cc[nH]n5)ccc4c3n2C(C)C)C1 [Example 5, (S)-1-(3-(4-Amino-1-isopropyl-7-(1H-pyrazol-3-yl)-1H-imidazo[4,5-c]quinolin-2-yl)piperidin-1-yl)propan-1-one]"
11,5.34,CC(C)C(=O)N1CCC[C@@H](c2nc3c(N)nc4cc(-c5cc[nH]n5)ccc4c3[nH]2)C1 [Example 60]
12,6.74,CCn1c([C@H]2CCCN(C(=O)c3ccccc3)C2)nc2c(N)nc3cc(-c4cc[nH]n4)ccc3c21 [Example 46]
13,6.66,CCn1c([C@H]2CCCN(C(=O)Cc3ccccc3)C2)nc2c(N)nc3cc(-c4cc[nH]n4)ccc3c21 [Example 50]
14,6.00,Nc1nc2cc(-c3cc[nH]n3)ccc2c2[nH]c([C@H]3CCCN(C(=O)C4CC4(F)F)C3)nc12 (stereo partly shown) [Example 33]
15,5.40,Nc1nc2cc(-c3cc[nH]n3)ccc2c2[nH]c(C[C@H]3CCCN3C(=O)C3(C(F)(F)F)CC3)nc12 [Example 81]
16,5.72,CC(C)(C)C(=O)N1CCC[C@H]1Cc1nc2c(N)nc3cc(-c4cc[nH]n4)ccc3c2[nH]1 [Example 88]
17,6.03,CC(=O)N1CCC[C@H](c2nc3c(N)nc4cc(-c5cc[nH]n5)ccc4c3n2C(C)C)C1 [Example 51]
18,5.24,CCCC(=O)N1CCC[C@@H]1Cc1nc2c(N)nc3cc(-c4cc[nH]n4)ccc3c2[nH]1 [Example 78]
19,5.30,N#CC1(C(=O)N2CC[C@H](c3nc4c(N)nc5cc(-c6cc[nH]n6)ccc5c4[nH]3)C2)CC1 [Example 75]
20,5.31,"CC(C)(C)OC(=O)N1CCC(c2nc3c(N)nc4cc(-c5cc[nH]n5)ccc4c3[nH]2)CC1 [Example 12, tert-Butyl 4-(4-amino-7-(1H-pyrazol-3-yl)-1H-imidazo[4,5-c]quinolin-2-yl)piperidine-1-carboxylate]"
21,5.15,"CC(C)C(=O)N1CC[C@@H](c2nc3c(N)nc4cc(-c5cc[nH]n5)ccc4c3[nH]2)C1 [Example 11, (R)-1-(3-(4-Amino-7-(1H-pyrazol-3-yl)-1H-imidazo[4,5-c]quinolin-2-yl)pyrrolidin-1-yl)-2-methylpropan-1-one]"
22,6.52,CC(C)n1c([C@H]2CCCN(C(=O)c3ccccc3)C2)nc2c(N)nc3cc(-c4cc[nH]n4)ccc3c21 [Example 56]

row,pEC50,Molecule
1,5.62,Nc1nc2cc(-c3cc[nH]n3)ccc2c2[nH]c([C@H]3CCCN(C(=O)C4CC4)C3)nc12 [Example 29]
2,5.80,"COC(=O)N1CCC(Cc2nc3c(N)nc4cc(-c5cc[nH]n5)ccc4c3[nH]2)C1 (stereo not shown) [Example 19, Methyl 3-((4-amino-7-(1H-pyrazol-3-yl)-1H-imidazo[4,5-c]quinolin-2-yl)methyl)pyrrolidine-1-carboxylate]"
3,5.18,Nc1nc2cc(-c3cc[nH]n3)ccc2c2[nH]c([C@@H]3CCCN(C(=O)C4CC4(F)F)C3)nc12 (stereo partly shown) [Example 63]
4,6.96,"Nc1nc2cc(-c3cc[nH]n3)ccc2c2[nH]c(C[C@H]3CCCN3)nc12 [Example 14, (R)-7-(1H-pyrazol-3-yl)-2-(pyrrolidin-2-ylmethyl)-1H-imidazo[4,5-c]quinolin-4-amine]"
5,5.82,Nc1nc2cc(-c3cc[nH]n3)ccc2c2[nH]c([C@H]3CCCN(C(=O)c4ccccc4)C3)nc12 [Example 31]
6,5.92,"Nc1nc2cc(-c3cc[nH]n3)ccc2c2[nH]c(C[C@@H]3CCCN3)nc12 [Example 17, (S)-7-(1H-pyrazol-3-yl)-2-(pyrrolidin-2-ylmethyl)-1H-imidazo[4,5-c]quinolin-4-amine]"
7,6.05,CCCC(=O)N1CCC[C@H](c2nc3c(N)nc4cc(-c5cc[nH]n5)ccc4c3[nH]2)C1 [Example 27]
8,6.29,"Nc1nc2cc(-c3cc[nH]n3)ccc2c2[nH]c([C@H]3CCCNC3)nc12 [Example 2, (S)-2-(Piperidin-3-yl)-7-(1H-pyrazol-3-yl)-1H-imidazo[4,5-c]quinolin-4-amine]"
9,6.64,CC(C)n1c([C@H]2CCCN(C(=O)C3(C#N)CC3)C2)nc2c(N)nc3cc(-c4cc[nH]n4)ccc3c21 [Example 55]
10,6.42,CCCC(=O)N1CCC[C@H](c2nc3c(N)nc4cc(-c5cc[nH]n5)ccc4c3n2C(C)C)C1 [Example 52]
11,5.18,COCC(=O)N1CCC[C@@H]1Cc1nc2c(N)nc3cc(-c4cc[nH]n4)ccc3c2[nH]1 [Example 80]
12,5.80,CC(C)C(=O)N1CCC[C@@H]1Cc1nc2c(N)nc3cc(-c4cc[nH]n4)ccc3c2[nH]1 [Example 79]
13,6.59,"CCC(=O)N1CCC[C@H](c2nc3c(N)nc4cc(-c5cc[nH]n5)ccc4c3n2CC)C1 [Example 4, (S)-1-(3-(4-Amino-1-ethyl-7-(1H-pyrazol-3-yl)-1H-imidazo[4,5-c]quinolin-2-yl)piperidin-1-yl)propan-1-one]"
14,5.82,"CC(C)(C)OC(=O)N1CCC[C@@H]1Cc1nc2c(N)nc3cc(-c4cc[nH]n4)ccc3c2[nH]1 [Example 13, tert-Butyl (R)-2-((4-amino-7-(1H-pyrazol-3-yl)-1H-imidazo[4,5-c]quinolin-2-yl)methyl)pyrolidine-1-carboxylate]"
15,5.59,N#CC1(C(=O)N2CCC[C@@H]2Cc2nc3c(N)nc4cc(-c5cc[nH]n5)ccc4c3[nH]2)CCC1 [Example 82]
16,6.64,CC(C)CC(=O)N1CCC[C@H](c2nc3c(N)nc4cc(-c5cc[nH]n5)ccc4c3n2C(C)C)C1 [Example 53]
17,5.19,N#CC1(C(=O)N2CCC[C@H]2Cc2nc3c(N)nc4cc(-c5cc[nH]n5)ccc4c3[nH]2)CCCC1 [Example 95]
18,5.92,CC(C)C(=O)N1CCC[C@H](c2nc3c(N)nc4cc(-c5cc[nH]n5)ccc4c3[nH]2)C1 [Example 26]
19,5.74,"CCC(=O)N1CCC[C@@H]1Cc1nc2c(N)nc3cc(-c4cc[nH]n4)ccc3c2[nH]1 [Example 15, (R)-1-(2-((4-Amino-7-(1H-pyrazol-3-yl)-1H-imidazo[4,5-c]quinolin-2-yl)methyl)pyrrolidin-1-yl)propane-1-one]"
20,5.22,COCCC(=O)N1CCC[C@H]1Cc1nc2c(N)nc3cc(-c4cc[nH]n4)ccc3c2[nH]1 [Example 90]
21,5.60,Nc1nc2cc(-c3cc[nH]n3)ccc2c2[nH]c([C@H]3CCCN(C(=O)C4CC(F)(F)C4)C3)nc12 [Example 32]
